From patent US12478624B2, “Heterocyclic derivatives, pharmaceutical compositions and their use in the treatment or amelioration of cancer” (Tolremo Therapeutics AG, priority 2019, dated 2025)

Tests used:
A375 cells = assay: Assay 1: A375 cells treated with S1152, S1008 and compound, immunofluorescence (sc-365823) signal; assay type: cell-based; details: 1 μM S1152 + 0.5 μM S1008, one day
Outline: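 A375 cells treated one day with 1 μM S1152, 0.5 μM S1008 and compound dose ranges in DMEM/10% FCS, then fixed, permeabilised and immunostained. Green signal normalised to nuclear counterstain (ethidium-type or DAPI), log ratio fitted by four-parameter regression for EC50.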

OPM-2 = assay: Assay 2: multiple myeloma cellular efficacy, PrestoBlue cell proliferation/survival; assay type: cell-based; details: Homo sapiens, 96 h, OPM-2 cells, 4 days
Method: Multiple Myeloma Cellular Efficacy:
10000 OPM-2 (ACC50; DSMZ) were plated into wells of a 384 well plate (Greiner 781090). Cells were treated for 4 days with a dose range of compound or vehicle. At the end of the experiment cells were stained directly with PrestoBlue (ThermoFisher Scietific; A13262) for 2 hours at 37° C. in a humidified incubator according to manufactor's instruction. To assess the relative cell number the PrestoBlue signal was measured using either a TecanM1000Pro reader or a Tecan Sparks reader following the manufactor's instructions. Background (no cells) values were subtracted and set in relation to the vehicle control. To assess the EC50 of each compound the relative fluorescence value was plotted against the compound concentration after log transformation. Data were fitted in a nonlinear manner with a variable slope (four parameters) using graphpad prism software. Cellular efficacy of compounds was evaluated in the multiple myeloma cell line OPM-2 using the cell proliferation/survival assay PrestoBlue. EC50 values are classified as indicated below.

Compound	EC50 (A375 cells) [nM]	EC50 (OPM-2) [nM]
COCC(=O)Nc1cccc(Nc2cc(-c3cccnc3)nc([C@@H]3CC[C@H](C)N(C(C)=O)C3)n2)c1 [Compound 00084, N-(3-((2-((3R,6S)-1-acetyl-6-methylpiperidin-3-yl)-6-(pyridin-3-yl)pyrimidin-4-yl)amino)phenyl)-2-methoxyacetamide]	< 200	200 to 1000
CC(=O)Nc1cccc(Nc2cc(-c3cncc4c3ccn4C)nc([C@@H]3CC[C@H](C)N(C(C)=O)C3)n2)c1 [Compound 00085, N-(3-((2-((3R,6S)-1-acetyl-6-methylpiperidin-3-yl)-6-(1-methyl-1H-pyrrolo[2,3-c]pyridin-4-yl)pyrimidin-4-yl)amino)phenyl)acetamide]	< 200	< 200
CC(=O)N1C[C@H](c2nc(Nc3cccc(N4CCC4=O)c3)cc(-c3cccnc3)n2)CC[C@@H]1C [Compound 00087, 1-(3-((2-((3R,6S)-1-acetyl-6-methylpiperidin-3-yl)-6-(pyridin-3-yl)pyrimidin-4-yl)amino)phenyl)azetidin-2-one]	< 200	200 to 1000
CC(=O)N1C[C@H](c2nc(Nc3cccc(NC(=O)C4CC4)c3)cc(-c3cccnc3)n2)CC[C@@H]1C [Compound 00089, N-(3-((2-((3R,6S)-1-acetyl-6-methylpiperidin-3-yl)-6-(pyridin3-yl)pyrimidin-4-yl)amino)phenyl)-cyclopropanecarboxamide]	< 200	< 200
COCCOc1cncc(-c2cc(Nc3cc(F)cc(-c4cnn(C)c4)c3)nc([C@@H]3CC[C@H](C)N(C(C)=O)C3)n2)c1 [Compound 00091, 1-((2S,5R)-5-(4-((3-fluoro-5-(1-methyl-1H-pyrazol-4-yl)phenyl)amino)-6-(5-(2-methoxyethoxy)pyridin-3-yl)pyrimidin-2-yl)-2-methylpiperidin-1-yl)ethan-1-one]	< 200	< 200
CC(=O)N1C[C@H](c2nc(Nc3cc(F)cc(-c4cnn(C)c4)c3)cc(-c3cncc(OCCO)c3)n2)CC[C@@H]1C [Compound 00093, 1-((2S,5R)-5-(4-((3-fluoro-5-(1-methyl-1H-pyrazol-4-yl)phenyl)amino)-6-(5-(2-hydroxyethoxy)pyridin-3-yl)pyrimidin-2-yl)-2-methylpiperidin-1-yl)ethan-1-one]	< 200	< 200
CC(=O)N1C[C@H](c2nc(Nc3ccnc(C)c3)cc(-c3cccnc3)n2)CC[C@@H]1C [Compound 00095, 1-((2S,5R)-2-methyl-5-(4-((2-methylpyridin-4-yl)amino)-6-(pyridin-3-yl)pyrimidin-2-yl)piperidin-1-yl)ethan-1-one]	< 200	< 200
CC(=O)N1C[C@H](c2nc(Nc3cncc(C(F)F)c3)cc(-c3cccnc3)n2)CC[C@@H]1C [Compound 00107, 1-((2S,5R)-5-(4-((5-(difluoromethyl)pyridin-3-yl)amino)-6-(pyridin-3-yl)pyrimidin-2-yl)-2-methylpiperidin-1-yl)ethan-1-one]	200 to 1000	200 to 1000
CC(=O)N1C[C@H](c2nc(Nc3ccnc(C)c3)cc(-c3cncc4c3cnn4C)n2)CC[C@@H]1C [Compound 00112, 1-((2S,5R)-2-methyl-5-(4-(1-methyl-1/7-pyrazolo[3,4-c]pyridin-4-yl)-6-((2-methylpyridin-4-yl)amino)pyrimidin-2-yl)piperidin-1-yl)ethan-1-one]	< 200	< 200
CC(=O)N1C[C@H](c2nc(Nc3ccnc(C)c3)cc(-c3cncc(N4CC(C(=O)N(C)C)C4)c3)n2)CC[C@@H]1C [Compound 00113, 1-(5-(2-((3R,6S)-1-acetyl-6-methylpiperidin-3-yl)-6-((2-methylpyridin-4-yl)amino)pyrimidin-4-yl)pyridin-3-yl)-N,N-dimethylazetidine-3-carboxamide]	1000 to 10000	1000 to 10000
CC(=O)N1C[C@H](c2nc(Nc3ccnc(F)c3)cc(-c3cncc(O)c3)n2)CC[C@@H]1C [Compound 00117, 1-((2S,5R)-5-(4-((2-fluoropyridin-4-yl)amino)-6-(5-hydroxypyridin-3-yl)pyrimidin-2-yl)-2-methylpiperidin-1-yl)ethan-1-one]	1000 to 10000	1000 to 10000
CC(=O)N1C[C@H](c2nc(Nc3ccnc(F)c3)cc(-c3cncc4c3ccn4C)n2)CC[C@@H]1C [Compound 00118, 1-((2S,5R)-5-(4-((2-fluoropyridin-4-yl)amino)-6-(1-methyl-1H-pyrrolo[2,3-c]pyridin-4-yl)pyrimidin-2-yl)-2-methylpiperidin-1-yl)ethan-1-one]	< 200	< 200
COCCOc1cncc(-c2cc(Nc3ccnc(F)c3)nc([C@@H]3CC[C@H](C)N(C(C)=O)C3)n2)c1 [Compound 00119, 1-((2S,5R)-5-(4-((2-fluoropyridin-4-yl)amino)-6-(5-(2-methoxyethoxy)pyridin-3-yl)pyrimidin-2-yl)-2-methylpiperidin-1-yl)ethan-1-one]	< 200	< 200
CC(=O)N1C[C@H](c2nc(Nc3cncc(C(F)(F)F)c3)cc(-c3cccnc3)n2)CC[C@@H]1C [Compound 00124, 1-((2S,5R)-2-methyl-5-(4-(pyridin-3-yl)-6-((5-(trifluoromethyl)pyridin-3-yl)amino)pyrimidin-2-yl)piperidin 1-yl)ethan-1-one]	< 200	200 to 1000
CC(=O)N1C[C@H](c2nc(Nc3ccnc(C)c3)cc(-c3cnccn3)n2)CC[C@@H]1C [Compound 000126]	< 200	< 200
CC(=O)N1C[C@H](c2nc(Nc3ccnc(C)c3)cc(-c3cncc(C)n3)n2)CC[C@@H]1C [Compound 00131, 1-((2S,5R)-2-methyl-5-(4-(6-methylpyrazin-2-yl)-6-((2-methylpyridin-4-yl)amino)pyrimidin-2-yl)piperidin-1-yl)ethan-1-one]	< 200	< 200
COc1cncc(-c2cc(Nc3cncc(C)c3)nc([C@@H]3CC[C@H](C)N(C(C)=O)C3)n2)c1 [Compound 00132, 1-((2S,5R)-5-(4-(5-methoxypyridin-3-yl)-6-((5-methylpyridin-3-yl)amino)pyrimidin-2-yl)-2-methylpiperidin-1-yl)ethan-1-one]	< 200	< 200

Now from value to molecule, other results behind:

EC50 (A375 cells) [nM]	Compound	EC50 (OPM-2) [nM]
< 200	CC(=O)N1C[C@H](c2nc(Nc3cccc(N4CCOC4=O)c3)cc(-c3cccnc3)n2)CC[C@@H]1C [Compound 00088, 3-(3-((2-((3R,6S)-1-acetyl-6-methylpiperidin-3-yl)-6-(pyridin-3-yl)pyrimidin-4-yl)amino)phenyl)oxazolidin-2-one]	200 to 1000
< 200	COCCn1ccc2c(-c3cc(Nc4cccc(-c5cn(C)nn5)c4)nc([C@@H]4CC[C@H](C)N(C(C)=O)C4)n3)cncc21 [Compound 00094, 1-((2S,5R)-5-(4-(1-(2-methoxyethyl)-1H-pyrrolo[2,3-c]pyridin4-yl)-6-((3-(1-methyl-1H-1,2,3-triazol-4-yl)phenyl)amino)pyrimidin-2-yl)-2-methylpiperidin-1-yl)ethan1-one]	< 200
< 200	CC(=O)N1C[C@H](c2nc(Nc3ccnc(C)c3)cc(-c3cc(C)cs3)n2)CC[C@@H]1C [Compound 00105, 1-((2S,5R)-2-methyl-5-(4-((2-methylpyridin-4-yl)amino)-6-(4-methylthiophen-2-yl)pyrimidin-2-yl)piperidin-1-yl)ethan-1-one]	200 to 1000
< 200	CC(=O)N1C[C@H](c2nc(Nc3ccnc(C)c3)cc(-c3cncc(OC(F)F)c3)n2)CC[C@@H]1C [Compound 00111, 1-((2S,5R)-5-(4-(5-(difluoromethoxy)pyridin3-yl)-6-((2-methylpyridin4-yl)amino)pyrimidin-2-yl)-2-methylpiperidin-1-yl)ethan-1-one]	200 to 1000
< 200	CC(=O)N1C[C@H](c2nc(Nc3ccnc(C)c3)cc(-c3cncc(N4C[C@@H]5C[C@H]4CO5)c3)n2)CC[C@@H]1C [Compound 00115, 1-((2S,5R)-5-(4-(5-((1S,4S)-2-oxa-5-azabicyclo[2.2.1]heptan-5-yl)pyridin-3-yl)-6-((2-methylpyridin-4-yl)amino)pyrimidin-2-yl)-2-methylpiperidin-1-yl)ethan-1-one]	200 to 1000
< 200	CC(=O)N1C[C@H](c2nc(Nc3ccnc(C)c3)cc(-c3cncc4c3ccn4C)n2)CC[C@@H]1C [Compound 00116, 1-((2S,5R)-2-methyl-5-(4-(1-methyl-1/7-pyrrolo[2,3-c]pyridin4-yl)-6-((2-methylpyridin-4-yl)amino)pyrimidin-2-yl)piperidin1-yl)ethan-1-one]	< 200
< 200	CC(=O)N1C[C@H](c2nc(Nc3ccnc(C(F)(F)F)c3)cc(-c3cccnc3)n2)CC[C@@H]1C [Compound 00123, 1-((2S,5R)-2-methyl-5-(4-(pyridin-3-yl)-6-((2-(trifluoromethyl)pyridin-4-yl)amino)pyrimidin-2-yl)piperidin 1-yl)ethan-1-one]	< 200
< 200	CC(=O)N1C[C@H](c2nc(Nc3ccnc(C(F)F)c3)cc(-c3cnccn3)n2)CC[C@@H]1C [Compound 00130, 1-((2S,5R)-5-(4-((2-(difluoromethyl)pyridin-4-yl)amino)-6-(pyrazin-2-yl)pyrimidin-2-yl)-2-methylpiperidin-1-yl)ethan-1-one]	< 200
